Data published in US20120064154A1, “SOLID DRUG FOR ORAL USE” (KISSEI PHARMACEUTICAL CO., LTD., priority 2002, published 2012).

Experiments:
[1] = Solubility of KMD-3213; assay type: physicochemical
[2] = Stability of KMD-3213; assay type: physicochemical

C[C@H](Cc1cc2c(c(C(N)=O)c1)N(CCCO)CC2)NCCOc1ccccc1OCC(F)(F)F [KMD-3213]
solubility ([1]; in a neutral medium such as water): hardly soluble
solubility ([1]; in an acidic medium): relatively a high solubility
stability ([2]; against a light exposure): relatively unstable
stability ([2]; in acidic conditions): stable
